One compound from US20060188507A1, “Methods for identifying chemotherapeutic resistance in non-hematopoietic tumors” (priority 2005, published 2006) can be followed below.

One test deals with MDA-MB-231 cells. Kind of test: Adriamycin sensitivity of MDA-MB-231 cells. The settings on record: MDA-MB-231 parental line. Type of test: cell-based, human. As for the experimental part: The cells are allowed to attach to the plate overnight and then the media is replaced with media containing an different concentrations of ADR (0 nM, 10 nM, 20 nM, 50 nM, 100 nM, 400 nM, 500 nM, 1 μM, 5 μM, and 10 μM) and the cells are then incubated at 37° C. for 4 days. […] The colonies are the counted and the results expressed as the level of ADR resistance in nM (e.g., ≦400 nM), or EC50, in which 50% of the cells were still alive.

A further test deals with MCF7 cells. The test is described as follows: Adriamycin sensitivity of MCF7 cells. The settings on record: for EC50: Homo sapiens.
Another test relates to p16^INK4a protein. Kind of test: p16 induction after short-term adriamycin exposure (modified SITp16), MCF7 cells. Type of test: cell-based, human. The settings on record: 50 nM adriamycin, 36 hour treatment (FIG. 9). As to the method: Finally, in a modification of the SITp16, an experiment was performed to determine if p16 expression was induced following a short-term exposure of adriamycin-sensitive cells to adriamycin. For these studies, MCF7 cells were treated 3 days with the EC50 amount of adriamycin (i.e., the effective concentration median or middle of a dose response curve -for MCF7 cells and adriamycin, this is 40 nM. (Note that EC50 is the effective concentration median or middle of a dose response curve, while IC50=inhibitory concentrations by 50%. Total cell lysates (i.e., extracts) were then prepared from these adriamycin-treated cells (called MCF7 EC50 Doxo), as well as from an equal number of MCF7 cells (drug sensitive), MCF7/AR (adriamycin-resistant cells), and OVCAR3 cells (an ovarian cancer cell line from a patient who was treated with adriamycin). The lysates were resolved by SDS-PAGE, transferred to a nitrocellulose membrane, and probed with p16^INK4a specific monoclonal antibody (α-p16^INK4a (Ab-4, Neomarkers clone 16P04, JC2 commercially available from Lab Vision, Freemont, Calif.).
Studies were next performed to determine if a short duration of exposure to adriamycin would cause upregulation of p16 expression in MCF7 cells. […]

The next test concerns HeLa cells. The test is described as follows: cells. The settings on record: Homo sapiens, HeLa, read-out: IC50 Results (MTT). The format is cell-based. As for the experimental part: III. MTT Cytotoxicity Assays. 24 hours post-transfection, siRNA transfected cells were seeded into 96-well plates at 3×10^3 cells/well. The cells were incubated for 16-24 hours. A range of concentrations of the indicated cytotoxic drugs was added and incubation was continued for an additional 48 hours. 20 μL of MTT (10 mg/mL) was added to each well and the plates were further incubated at 37° C. for 4 hours. The dye was solubilized with DMSO and absorbance measured at 570 nm using a multiwell plate reader (WALLAC). The results were expressed as the average of duplicate wells using the plate reader's Prism software (GraphPad).
Using the MTT cytotoxicity assay (as described in Example 3), the IC50 (i.e., the concentration at which 50% of the cells are still viable) of HeLa cells transfected with p16 siRNA for various chemotherapeutic agents was next assessed.

Read-outs that look alike come from different tables or passages of the source.

With `COc1cccc2c1C(=O)c1c(O)c3c(c(O)c1C2=O)C[C@@](O)(C(=O)CO)C[C@@H]3O[C@H]1C[C@H](N)[C@H](O)[C@H](C)O1` [Doxorubicin, doxorubicin], the figures for the “ADR concentration to which cell line is sensitive” value in the test with MDA-MB-231 cells and in the test with MCF7 cells (MCF7 parental line) were “approximately 200 nM” and “approximately 80 nM”, respectively. The EC50 was determined as 40 nM in the test on MCF7 cells (MCF7, read-out: EC50 (effective concentration median of dose response curve)) and 50 nM in the test with MCF7 cells (MCF7, read-out: concentration known to kill 50% of MCF7 drug-sensitive cells). Further, in the test with p16^INK4a protein, the “upregulation of p16 expression after short exposure” value was “did not result in these cells' upregulation of p16 expression”. For the same compound, the values for the IC50 with HeLa cells (HeLa cells transfected with GFP siRNA) and with HeLa cells (HeLa cells transfected with P16 siRNA (p16 siRNA I)) were 113 nM and 70.4 nM, respectively.
